Results: patent US8426426B2, “Gyrase inhibitors and uses thereof” (Vertex Pharmaceuticals Incorporated, priority 2002, dated 2013)
Values after ≈ are worked out from the molar mass of the structure shown.

Experiments:
[1] = test system: S. pneumoniae; experiment: Susceptibility testing in liquid media (MIC assay) against S. pneumoniae; assay type: cell-based; settings: Streptococcus pneumoniae, 35° C. overnight (16 to 20 hours)
Method: (§1) Compounds of this invention were tested for antimicrobial activity by susceptibility testing in liquid media. Such assays were performed within the guidelines of the latest NCCLS document governing such practices: “M7-A5 Methods for dilution Antimicrobial Susceptibility Tests for Bacteria that Grow Aerobically; Approved Standard—Fifth Edition (2000)”. Other publications such as “Antibiotics in Laboratory Medicine” (Edited by V. Lorian, Publishers Williams and Wilkins, 1996) provide essential practical techniques in laboratory antibiotic testing.
(§2) Several discrete bacterial colonies (3 to 7) from a freshly streaked plate were transferred to an appropriate rich broth medium such as MHB, supplemented where appropriate for the more fastidious organisms. This was grown overnight to high density followed by a 1 or 2-thousand-fold dilution to give an inoculation density of between 5×10^5 and 5×10^6 CFU per mL. Alternatively, the freshly picked colonies can be incubated at 37° C. for about 4 to 8 hours until the culture equals or exceeds a turbidity of a 0.5 McFarland standard (approximately 1.5×10^8 cells per mL) and diluted to give the same CFU per mL as above. In a more convenient method, the inoculum was prepared using a commercially available mechanical device (the BBL PROMPT System) that involves touching five colonies directly with a wand, containing crosshatch grooves at its bottom, followed by suspension of the bacteria in an appropriate volume of saline. Dilution to the appropriate inoculum cell density was made from this cell suspension. The broth used for testing consists of MHB supplemented with 50 mg per L of Ca^2+ and 25 mg per L of Mg^2+. Standard dilution panels of control antibiotics were made and stored as in the NCCLS standard M7-A5, the dilution range typically being in the 128 μg per mL to 0.015 μg per mL (by 2-fold serial dilution). The test compounds were dissolved and diluted fresh for experimentation on the same day; the same or similar ranges of concentration as above being used. The test compounds and controls were dispensed into a multiwell plate and test bacteria added such that the final inoculation was approximately 5×10^4 CFU per well and the final volume was 100 μL. The plates were incubated at 35° C. overnight (16 to 20 hours) and checked by eye for turbidity or quantitated with a multiwell plate reader. […] Such determinations were also compared to the appropriate tables contained in the above two publications to ensure that the range of antibacterial activity is within the acceptable range for this standardized assay.
(§3) The compound numbers correspond to the compound numbers in Table 1.

[2] = test system: S. aureus; experiment: Susceptibility testing in liquid media (MIC assay) against S. aureus; assay type: cell-based; settings: 35° C. overnight (16 to 20 hours); for MIC: Staphylococcus aureus
Method: as §1, §2, §3

Compound | MIC [1] [µg/mL] | MIC [2] [µg/mL] | MIC (Activity) against S. aureus [2]
CCNC(=O)Nc1nc2cc(-c3cccnc3)cc(C(=O)CN(C)C)c2[nH]1 [Compound I-4] | > 1 |  | 
CCNC(=O)Nc1nc2cc(-c3cncnc3)cc(C(=O)CC)c2[nH]1 [Compound I-23] | ≤ 0.5 | ≤ 0.5 | 
CCNC(=O)Nc1nc2cc(-c3cccnc3)c(F)c(C(=O)NC)c2[nH]1 [Compound I-6] |  | 0.5 to 1 (≈ 1.4 to 2.81 µM) | 
CCNC(=O)Nc1nc2cc(-c3cccnc3)cc(C(=O)C3CC3)c2[nH]1 [Compound I-25] | ≤ 0.5 | ≤ 0.5 | 
CCNC(=O)Nc1nc2cc(-c3cccnc3)cc(/C(=N/O)C3CCCC3)c2[nH]1 [Compound I-43] | ≤ 0.5 | ≤ 0.5 | 
CCNC(=O)Nc1nc2cc(-c3ccn(C)c(=O)c3)c(F)c(C(=O)OC)c2[nH]1 [Compound I-35] | ≤ 0.5 | ≤ 0.5 | 
CCNC(=O)Nc1nc2cc(-c3cccnc3)cc(C(=O)c3nccn3CC)c2[nH]1 [Compound I-29] | ≤ 0.5 | ≤ 0.5 | 
CCNC(=O)Nc1nc2cc(-c3cccnc3)cc(C(=O)C(C)CC)c2[nH]1 (centres unmarked) [Compound I-21] | ≤ 0.5 | ≤ 0.5 | 
CCNC(=O)Nc1nc2cc(-c3cccnc3)cc(C(=O)Nc3cc(C)[nH]n3)c2[nH]1 [Compound I-15] |  | > 1 | 
CCOC(=O)Nc1nc2cc(-c3cccnc3)cc(C(=O)CC)c2[nH]1 [Compound I-44, (7-Propionyl-5-pyridin-3-yl-1H-benzoimidazol-2-yl)-carbamic acid ethyl ester] | ≤ 0.5 | > 1 | 
CCNC(=O)Nc1nc2cc(-c3cccnc3)cc(/C(=N/OCC)C3CC3)c2[nH]1 [Compound I-41] | ≤ 0.5 | ≤ 0.5 | 
CCNC(=O)Nc1nc2cc(-c3cccnc3)cc(C(=O)NC)c2[nH]1 [Compound I-16] |  | > 1 | 
CCNC(=O)Nc1nc2cc(-c3cncnc3)cc(C(=O)NC)c2[nH]1 [Compound I-7] |  | > 1 | 
1-(7-Cyclohexanecarbonyl-5-pyridin-3-yl-1H-benzoimidazol-2-yl)-3-ethyl-urea [Compound I-14] |  |  | C (an MIC of greater than 1.0 μg/mL)
CCNC(=O)Nc1nc2cc(-c3cc(C)n(Cc4ccccn4)c(=O)c3)cc(C(=O)OC)c2[nH]1 [Compound I-32] | ≤ 0.5 | ≤ 0.5 | 
CCNC(=O)Nc1nc2cc(-c3cccnc3)cc(/C(CC)=N/OC)c2[nH]1 [Compound I-38] | ≤ 0.5 | ≤ 0.5 | 
CCNC(=O)Nc1nc2cc(-c3cccnc3)cc(C(=O)OCC)c2[nH]1 [Compound I-34] | ≤ 0.5 | ≤ 0.5 | 
CCC/C(=N\OC)c1cc(-c2cccnc2)cc2nc(NC(=O)NCC)[nH]c12 [Compound I-39] | ≤ 0.5 | ≤ 0.5 | 
CCNC(=O)Nc1nc2cc(-c3cccnc3)c(F)c(C(=O)OC)c2[nH]1 [Compound I-3] |  | ≤ 0.5 | 

Compound | MIC [1] [µg/mL] | MIC [2] [µg/mL] | MIC (Activity) against S. aureus [2]
CCNC(=O)Nc1nc2cc(-c3cccnc3)cc(C(=O)CC(C)C)c2[nH]1 [Compound I-24] | ≤ 0.5 | ≤ 0.5 | 
CCNC(=O)Nc1nc2cc(-c3cccnc3)cc(C(=O)C3CCCC3)c2[nH]1 [Compound I-28] | ≤ 0.5 | ≤ 0.5 | 
CCNC(=O)Nc1nc2cc(-c3cccnc3)cc(C(=O)OC(C)C)c2[nH]1 [Compound I-33] | ≤ 0.5 | ≤ 0.5 | 
CCCC(=O)c1cc(-c2cccnc2)cc2nc(NC(=O)NCC)[nH]c12 [Compound I-20] | ≤ 0.5 | ≤ 0.5 | 
CCNC(=O)Nc1nc2cc(-c3cccnc3)cc(C(=O)CCCCO)c2[nH]1 [Compound I-37] | ≤ 0.5 | 0.5 to 1 (≈ 1.31 to 2.62 µM) | 
CCNC(=O)Nc1nc2cc(-c3cccnc3)cc(C(=O)c3nccn3C)c2[nH]1 [Compound I-26] | ≤ 0.5 | ≤ 0.5 | 
CCNC(=O)Nc1nc2cc(-c3cccnc3)cc(C(=O)NCCO)c2[nH]1 [Compound I-13] |  | > 1 | 
CCNC(=O)Nc1nc2cc(-c3cccnc3)cc(C(=O)CC)c2[nH]1 [Compound I-19] | ≤ 0.5 | ≤ 0.5 | 
CCNC(=O)Nc1nc2cc(-c3cncnc3)cc(C(=O)OC)c2[nH]1 [Compound I-5] | ≤ 0.5 | ≤ 0.5 | 
CCNC(=O)Nc1nc2cc(-c3cccnc3)cc(/C(=N/OC)C3CC3)c2[nH]1 [Compound I-40, 1-[4-(Cyclopropyl-methoxyimino-methyl)-6-pyridin-3-yl-1H-benzoimidazol-2-yl]-3-ethyl-urea] | ≤ 0.5 | ≤ 0.5 | 
CCNC(=O)Nc1nc2cc(-c3cccnc3)cc(C(=O)NCc3ccccc3)c2[nH]1 [Compound I-17] | ≤ 0.5 | 0.5 to 1 (≈ 1.21 to 2.41 µM) | 
CCNC(=O)Nc1nc2cc(-c3cccnc3)cc(C(=O)c3cn(C)cn3)c2[nH]1 [Compound I-30] | ≤ 0.5 | > 1 | 
CCNC(=O)Nc1nc2cc(-c3cccnc3)cc(C(=O)OC)c2[nH]1 [Compound I-1, 2-(3-Ethyl-ureido)-6-pyridin-3-yl-3H-benzoimidazole-4-carboxylic acid methyl ester] | ≤ 0.5 | ≤ 0.5 | 
CCNC(=O)Nc1nc2cc(-c3cccnc3)cc(/C(=N\O)C3CCCC3)c2[nH]1 [Compound I-42] | ≤ 0.5 | ≤ 0.5 | 
CCNC(=O)Nc1nc2cc(-c3cccnc3)cc(C(=O)CCc3ccccn3)c2[nH]1 [Compound I-31] | ≤ 0.5 | ≤ 0.5 | 
CCNC(=O)Nc1nc2cc(-c3ccn(C)c(=O)c3)c(F)c(C(=O)NC)c2[nH]1 [Compound I-36] | ≤ 0.5 | > 1 | 
CCNC(=O)Nc1nc2cc(-c3cccnc3)cc(C(C)=O)c2[nH]1 [Compound I-18] | ≤ 0.5 | ≤ 0.5 | 
CCNC(=O)Nc1nc2cc(-c3cccnc3)cc(C(=O)C3CCCCC3)c2[nH]1 [Compound I-11] | ≤ 0.5 | ≤ 0.5 | 
CCNC(=O)Nc1nc2cc(-c3cccnc3)cc(C(=O)C(C)C)c2[nH]1 [Compound I-22] | ≤ 0.5 | ≤ 0.5 | 
